Source: US20020037903A1, “Use of pyrimidine endothelin antagonists in companion animals” (priority 2000, published 2002)
Where two headings read alike, the source gives them in different places.

Legend:
heart disease in dogs = conditions: veterinary clinical trial, dogs with heart disease; cited from earlier work
ETA/B receptor = conditions: hypertensive patients; cited from earlier work
[1] = test system: dog renal artery strips (ET-1-induced contraction); assay: Test A: inhibition of contraction induced by ET-1 in dog renal artery strips to generate Kb values; type: cell-based, beagle dogs; conditions: Canis lupus familiaris, 1.25 h, ET-1 contraction, 75 minutes incubation with test compound, single concentration, read-out: Apparent Kb
Source text: Inhibition of Contraction Induced by ET-1 in Dog Renal Artery Strips to Generate Kb Values
A Kb value is a measure of functional activity, and this is taken to be the free plasma concentration of a test compound required to provide efficacy.
Renal arteries from beagle dogs (body weight 9-15 kg) were cut into spirals and divided into 5 mm long strips. The side of each strip that was adjacent to the lumen of the vessel was gently rubbed to remove the endothelium. […] The tension generated by each strip was recorded isometrically. After incubating the tissues with test compound for 75 minutes, cumulative concentration response curves were constructed to ET-1 in the presence of 10 μM Bestatin, 10 μM Captopril, 10 μM Thiorphan, 50 μM indomethacin and 0.001% BSA. Only a single ET-1 curve was constructed in each tissue and tension increases expressed as a percentage of the response to 120mM KCl determined before the addition of the test compound. […] This is the ratio of the EC50 in the presence of the test compound divided by the EC50 in its absence. The DR is then put into the following equation:
apparent pKb=log(DR−1)−log[B] (where B=molar concentration of test compound)

[2] = Test B: pharmacokinetic study in the dog, plasma concentrations after i.v. infusion; type: in vivo; conditions: for Estimated % of Kb at 24 hours following 2.0 mg/kg i.v. dose: 0.5 mg/kg value multiplied by 4; for % of Kb at 24 hours following 0.5 mg/kg i.v. dose: free plasma concentration as percentage of Kb from Test A; for concentration at 24 h: plasma, intravenous, 0.5 mg/kg
Protocol: In order to assess the potential of test ET antagonists to provide efficacy, a pharmacokinetic study in the dog was carried out.
Blood samples were taken at various time points and centrifuged to provide plasma samples. These samples were analysed using Mass Spectrometry to provide total plasma concentrations.
Total plasma concentrations in the dog were determined by comparison with the standard line constructed (using the spiked plasma samples) to cover the expected concentration range.
(c) Calculation of free plasma concentrations [formula] or % protein bound=(1−Fu)×100
The free plasma concentrations of the compound can then be determined.
Free plasma concentration=total plasma concentration (from method (a))×fraction unbound (from method (b))

[3] = Test B(b): plasma protein binding by equilibrium dialysis; type: in vitro ADME; conditions: dog, canine plasma
Source text: (b) Determination of plasma protein binding by equilibrium dialysis
An example of a method used is described below.
Plasma containing the test compound was placed in a chamber (half-cell), separated by a semi-permeable membrane (Spectra/Por™ 1 47 mm diam MWCO 6-8000) from isotonic buffer at physiological pH in the other half-cell. The system was allowed to equilibrate, such that low molecular weight compounds distributed evenly between the two chambers (plasma and buffer), whilst high molecular weight molecules were restricted to the plasma chamber. At equilibrium the concentration of the unbound test compound is the same on either side of the membrane. The concentration of total test compound in each half-cell was then determined (using essentially the described above) and the extent of plasma protein binding calculated.
The Spectra/Por™ Equilibrium Dialyzer used to determine protein binding was supplied by NBS Biologicals.

ETB receptors = target: T1, ETB receptors (Homo sapiens, UniProt P24530); conditions: in man; cited from earlier work
T1 construct: host or cells: man (in vivo)
T1 sequence (P24530 27-442): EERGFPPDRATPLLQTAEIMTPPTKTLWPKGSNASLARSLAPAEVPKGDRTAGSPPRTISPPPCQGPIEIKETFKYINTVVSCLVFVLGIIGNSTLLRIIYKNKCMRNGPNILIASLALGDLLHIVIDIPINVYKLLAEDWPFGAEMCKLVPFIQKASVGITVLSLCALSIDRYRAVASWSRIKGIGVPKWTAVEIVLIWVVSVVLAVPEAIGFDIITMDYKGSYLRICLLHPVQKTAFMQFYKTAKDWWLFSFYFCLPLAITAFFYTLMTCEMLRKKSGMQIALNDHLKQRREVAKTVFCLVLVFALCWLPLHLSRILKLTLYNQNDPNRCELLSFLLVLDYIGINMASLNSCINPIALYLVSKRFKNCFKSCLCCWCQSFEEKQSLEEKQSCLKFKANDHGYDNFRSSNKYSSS

neointimal formation = conditions: after balloon angioplasty; cited from earlier work
[4] = test system: dogs with pacing-induced CHF; assay: Congestive heart failure induced by rapid ventricular pacing in dogs; type: in vivo
Protocol: A group of animals receiving ACE-inhibitor treatment served as positive control.
Heart failure was induced by rapid ventricular pacing, which is a well established and extensively documented model It is the only heart failure model that allows control of the degree of heart failure by adjusting the pacing rate.
Dogs were paced throughout the study at pacing rates up to 220-240 bpm leading to steadily progressing CHF.
Group 1: Placebo (Furosemide 4 mg/kg/day BID per os, n=6)
Group 2: ET-receptor antagonist (2 mg/kg/day SID per os+Furosemide as above, n=6)
Group 3: Enalapril maleate (1 mg/kg/day BID per os+Furosemide as above)
(n=6, positive control) was initiated 2 weeks after start of pacing and continued for 3 weeks.
Throughout the study, both clinical parameters (heart murmurs, edema formation, dyspnoe) as well as haemodynamic (CO, blood pressure, cardiac contractility, and heart rate) and humoral parameters (plasma catecholamines, ANF, ET-1) were measured to determine morbidity and quality of life of the animals.
Dosing of the animals during the 3-week treatment period took place BID@8 am and 4 pm:
Improvement in cardiac function is illustrated by the effect of Compound X on the left ventricular enddiastolic pressure (LVEDP) in resting dogs before and during progressive CHF induced by pacing at […]. Test compounds were given for 3 weeks while pacing continued. In the graph below, the Y-axis is LVEDP in mm, and the X-axis is the time in weeks. […] [In the study, 5 dogs were treated with placebo, 3 dogs were treated with enalapril, and 5 dogs were treated with Compound X] [drawing 5]
Dogs were paced for 2 weeks to develop CHF and then assigned to oral gavage treatment with either placebo (vehicle), Compound X (2 mg/kg/day, sid), or enalapril (1 mg/kg/day, bid). In addition, all animals received the diuretic furosemide (4 mg/kg/day, bid) throughout treatment period. During the 3-week treatment period, rapid ventricular pacing was continued. Pacing led to deterioration of myocardial and circulatory function with progression of CHF as indicated by increases in left ventricular enddiastolic pressure (LVEDP) and reductions of cardiac contractility and output. In addition, all animals were assessed for clinical parameters of CHF by an independent veterinarian.
Throughout the study dogs were studied twice weekly at rest and during standardised exercise on a treadmill at two different speeds.

[5] = test system: ET-1-induced pressor response; assay: Test C: inhibition of ET-1-induced pressor response in conscious beagle dogs; type: in vivo
Protocol: Inhibition of ET-1-induced Pressor Response in Conscious Beagle Dogs
Studies were performed in surgically prepared conscious beagle dogs (13-17 kg) which were well adjusted to the laboratory environment. Surgical preparation was performed under recovery anaesthesia to insert an indwelling aortic catheter with external access between the scapulae and protruding subcutaneous ECG studs, positioned for the recording of lead 11 electrocardiograms. During studies dogs were placed, unrestrained, in “Pavlov” type slings. The aortic catheter was connected to a pressure transducer for the measurement of systemic arterial pressure and ECG studs, via patient cables, to a bio-amplifier for the recording of electrocardiograms. ET-1 was administered as a 15 min infusion (25 pmoles/kg/min) via a temporary catheter inserted into the saphenous vein. Test compound or placebo was administered by oral gavage (0.5 or 2.0 mg/kg) at 1 and 24 hours prior to the infusion of ET-1. Individual studies investigated no more than a single dose of test compound or placebo at any one time. Systemic arterial pressure and electrocardiograms were recorded for one hour prior to and one hour after the start of the infusion of ET-1. Test compounds were evaluated by comparing the effects of placebo or test compound on the magnitude of pressor response elicited by ET-1.

[6] = 0.5 mg/kg i.v. infusion over 10 minutes, read-out: Total plasma concentration at 24 hours following 0.5 mg/kg iv dose
[7] = total plasma concentration x fraction unbound, read-out: Free concentration at 24 hours following 0.5 mg/kg i.v. dose
[8] = 2 mg/kg/day sid p.o. plus furosemide, 3 weeks

Row | Estimated % of Kb at 24 hours following 2.0 mg/kg i.v. dose [2] | % of Kb at 24 hours following 0.5 mg/kg i.v. dose [2] | concentration at 24 h [2, 6] | concentration at 24 h [2, 7] | fraction unbound [3] | Structure (SMILES) | Kb [1] | further results
1 |  |  |  |  |  | CCOC(=O)[C@H](CCc1ccccc1)N[C@@H](C)C(=O)N1CCC[C@H]1C(=O)O [enalapril] |  | Cardiac function (heart disease in dogs): did not improve cardiac function; Disease progression (heart disease in dogs): significant slow down in disease progression
2 |  |  |  |  |  | COc1ccccc1Oc1c(NS(=O)(=O)c2ccc(C(C)(C)C)cc2)nc(-c2ncccn2)nc1OCCO [Bosentan] |  | Effect on blood pressure (ETA/B receptor): decreased blood pressure
3 | <32% | <8% | < 93 nM | < 11 nM | 0.12 | COCCOc1nc(-c2ncccn2)nc(NS(=O)(=O)CCc2ccccc2)c1Oc1ccccc1OC [Example 2, WO 98/57938] | 0.136 µM | 
4 |  |  |  |  |  | CCCC[C@@H](NC(=O)[C@@H](Cc1cn(C(=O)OC)c2ccccc12)NC(=O)[C@H](CC(C)(C)C)NC(=O)N1[C@H](C)CCC[C@@H]1C)C(=O)O [BQ-788] |  | Effect on peripheral resistance (ETB receptors): increase peripheral resistance
5 |  |  |  |  |  | CCCOc1ccc2c(c1)[C@@H](c1ccc(OC)cc1OCC(=O)O)[C@H](C(=O)O)[C@H]2c1ccc2c(c1)OCO2 [SB-209670] |  | Reduction in neointimal formation relative to control animals (neointimal formation): 50%
6 | 4.8% | 1.2% | 40 nM | 1.3 nM | 0.032 | COc1cc(OC)nc(O[C@H](C(=O)O)C(OC)(c2ccccc2)c2ccccc2)n1 [LU 135,252] | 0.111 µM | 

Row | Structure (SMILES) | Estimated % of Kb at 24 hours following 2.0 mg/kg i.v. dose [2] | % of Kb at 24 hours following 0.5 mg/kg i.v. dose [2] | concentration at 24 h [2, 6] | concentration at 24 h [2, 7] | fraction unbound [3] | Kb [1] | further results
7 | COc1ccccc1Oc1c(NS(=O)(=O)CCc2ccccc2)nc(-c2ncccn2)nc1OC [Compound X, N-[6-methoxy-5-(2-methoxyphenoxy)-2-(2-pyrimidinyl)-4-pyrimidinyl]-2-phenylethansulphonamide] | 196% | 49% | 466 nM | 41.9 nM | 0.09 | 0.086 µM | Arterial blood pressure (BP) [4, 8]: lower arterial blood pressure; Cardiac output [4, 8]: maintained or even increased cardiac output; LVEDP at rest and during treadmill exercise [4, 8]: significantly improved LVEDP not only under resting conditions but even more so during treadmill exercise; LVEDP relative to pre-treatment values [4, 8]: lowered LVEDP below pre-treatment values; Left ventricular enddiastolic pressure (LVEDP) in resting dogs ([4]; 2 mg/kg/day sid p.o. plus furosemide, 3 weeks, pacing 210-240 bpm, versus placebo and enalapril): Significant improvements over both placebo and enalapril; Exercise tolerance ([4]; all treated animals, placebo group three out of six developed exercise intolerance): maintained exercise tolerance throughout the study; Heart failure class, NYHA scale (I-IV) ([4]; all treated animals, placebo group three out of six reached class III): class II; Change in arterial pressure elicited by ET-1 ([5]; 0.5 mg/kg p.o., 1 hour prior to ET-1 infusion): 3 ΔmmHg; Change in arterial pressure elicited by ET-1 ([5]; 2.0 mg/kg p.o., 24 hours prior to ET-1 infusion): 3 ΔmmHg; inhibition at 0.5 mg/kg ([5]; Canis lupus familiaris, po, 0.5 mg/kg p.o., 1 hour prior to ET-1 infusion): 76%; inhibition at 2 mg/kg ([5]; Canis lupus familiaris, po, 2.0 mg/kg p.o., 24 hours prior to ET-1 infusion): 80%
